Experimental data reported in the CheMixHub viscosity set.
Where “and” joins values, the source holds several entries; their conditions need not be identical. Equal entries are not always repeated.

Assays:
[1] = xn = mol fraction of the nth substance listed

CC(=O)O.CC(=O)[O-].CC[NH+](CC)CCO
101 kPa
Details	viscosity [mPa·s]
293.15 K	110.4
298.15 K	80.19
303.15 K	59.63
308.15 K	45.32
313.15 K	35.12
318.15 K	27.71
323.15 K	22.22

Cc1ccc(O)cc1
Details	viscosity
293.15 K, 101 kPa	18.95 mPa·s
298.15 K, 101 kPa	13.93 mPa·s and 14.74 mPa·s
313.15 K, 101.3 kPa	6.661 mPa·s
318.15 K, 101 kPa	5.795 mPa·s and 5.292 mPa·s (2×)
323.15 K, 101.3 kPa	4.48 mPa·s
323.15 K, 101.33 kPa	4.62 mPa·s

NCCCO
101 kPa
Details	viscosity [mPa·s]
303.15 K	24.12
308.15 K	18.98
318.15 K	12.35

CCCCOCCOCCO
viscosity
Details	298.15 K	303.15 K	308.15 K	318.15 K
100 kPa	5.11 mPa·s	4.345 mPa·s	3.872 mPa·s	–
101 kPa	4.877 mPa·s	–	3.582 mPa·s	2.943 mPa·s
101.33 kPa	5.232 mPa·s and 5.232 mPa·s	–	–	–

c1ccc2sccc2c1
101 kPa
Details	viscosity [mPa·s]
308.15 K	2.94
318.15 K	2.06

Cc1cccc(C)c1
Details	viscosity
293.15 K, 100 kPa	0.614 mPa·s
293.15 K, 101 kPa	0.5522 mPa·s and 0.627 mPa·s
298.15 K, 101 kPa	0.5821 mPa·s and 0.5848 mPa·s
298.15 K, 101.3 kPa	0.586 mPa·s and 0.58 mPa·s
303 K, 101 kPa	0.5456 mPa·s and 0.5455 mPa·s
303.15 K, 101.3 kPa	0.543 mPa·s and 0.548 mPa·s and 0.5471 mPa·s
303.15 K, 101.33 kPa	0.555 mPa·s
308.15 K, 100 kPa	0.4712 mPa·s
308.15 K, 101 kPa	0.5329 mPa·s
308.15 K, 101.3 kPa	0.519 mPa·s
308.15 K, 101.33 kPa	0.5218 mPa·s and 0.542 mPa·s and 0.527 mPa·s
308.5 K, 101 kPa	0.547 mPa·s
313 K, 101 kPa	0.4931 mPa·s and 0.492 mPa·s
313.15 K, 100 kPa	0.492 mPa·s
313.15 K, 101 kPa	0.4463 mPa·s and 0.522 mPa·s and 0.4923 mPa·s
313.15 K, 101.3 kPa	0.49 mPa·s
323 K, 101 kPa	0.4487 mPa·s
323.15 K, 101 kPa	0.3949 mPa·s and 0.4488 mPa·s
323.15 K, 101.3 kPa	0.439 mPa·s

O=S1(=O)CCCC1
Details	viscosity
298.15 K, 101.3 kPa	10.28 mPa·s
308.15 K, 100 kPa	8.795 mPa·s
308.15 K, 101.3 kPa	8.258 mPa·s
318.15 K, 101 kPa	7.18 mPa·s and 7.17 mPa·s and 6.912 mPa·s
318.15 K, 101.3 kPa	6.256 mPa·s
323.15 K, 101.33 kPa	6.346 mPa·s

Nc1ccccc1Cl
viscosity
Details	298.15 K	303.15 K	308.15 K	313.15 K	318.15 K
100 kPa	4.209 mPa·s	3.825 mPa·s	3.413 mPa·s	3.06 mPa·s	2.762 mPa·s
101 kPa	2.973 mPa·s and 2.974 mPa·s	–	–	–	–

CCC[n+]1ccn(C)c1C.O=S(=O)([N-]S(=O)(=O)C(F)(F)F)C(F)(F)F
Details	viscosity [mPa·s]
298.15 K, 101 kPa	85.6

Cc1ccccc1N
viscosity
Details	298.15 K	303.15 K	308.15 K	313.15 K	318.15 K
100 kPa	3.718 mPa·s	3.258 mPa·s and 3.258 mPa·s and 3.26 mPa·s	2.824 mPa·s and 2.824 mPa·s and 2.82 mPa·s	2.487 mPa·s and 2.487 mPa·s and 2.49 mPa·s	2.153 mPa·s and 2.153 mPa·s and 2.15 mPa·s
101 kPa	3.645 mPa·s	3.1 mPa·s	–	–	–

C1CC[NH2+]C1.CCCCCCCC(=O)[O-]
101 kPa
Details	viscosity [mPa·s]
293.15 K	72.2
298.15 K	62.71
303.15 K	50.21
308.15 K	42.89
313.15 K	35.27

ClC(Cl)(Cl)c1ccccc1
Details	viscosity [mPa·s]
298.15 K, 101.33 kPa	2.18

CCCCn1cc[n+](C)c1.F[B-](F)(F)F
viscosity
Details	293.15 K	295.2 K	303.15 K	308.15 K	313.15 K	318.15 K	323.15 K
101 kPa	133.5 mPa·s and 127.6 mPa·s	122.9 mPa·s	–	65 mPa·s and 61.5 mPa·s and 58.36 mPa·s	52.2 mPa·s and 50.52 mPa·s and 46.22 mPa·s	42.6 mPa·s and 38.72 mPa·s	34.52 mPa·s
101.33 kPa	125.3 mPa·s	–	81.85 mPa·s and 87.7 mPa·s	63.57 mPa·s and 72.5 mPa·s	57.7 mPa·s	–	34.8 mPa·s

CCC(C)O (stereo not drawn)
viscosity
Details	293.15 K	298.15 K	303 K	303.15 K	308.15 K	318.15 K	323.15 K
100 kPa	4.036 mPa·s	–	–	–	–	–	1.626 mPa·s
101 kPa	–	–	–	2.742 mPa·s and 2.27 mPa·s and 2.741 mPa·s	2 mPa·s and 2.179 mPa·s	1.58 mPa·s and 1.566 mPa·s	1.41 mPa·s
101.3 kPa	–	–	–	3.177 mPa·s	2.582 mPa·s	–	–
101.33 kPa	3.647 mPa·s	2.925 mPa·s and 2.857 mPa·s	2.195 mPa·s	2.417 mPa·s and 2.741 mPa·s	2.034 mPa·s and 2.011 mPa·s	1.62 mPa·s	–

O=S(=O)(Cl)Cl
Details	viscosity [mPa·s]
298.15 K, 101 kPa	0.685

OC1COCOC1
101 kPa
Details	viscosity
298.15 K	13.11 mPa·s
308.15 K	8.963 mPa·s
318.15 K	6.508 mPa·s and 6.58 mPa·s

CC(O)CC(C)(C)O (stereo not drawn)
101 kPa
Details	viscosity
308.15 K	20.29 mPa·s and 20.37 mPa·s
318.15 K	17.79 mPa·s and 17.73 mPa·s

Cc1cccc(C)c1 + CCCCCCCCCC
viscosity [mPa·s], [1], 101 kPa
Details	x1 = 0.0494	x1 = 0.1119	x1 = 0.2059	x1 = 0.2732	x1 = 0.4032	x1 = 0.4856	x1 = 0.6058	x1 = 0.7313	x1 = 0.8131	x1 = 0.9342
308.15 K	0.7221	0.6889	0.6779	0.6545	0.6148	0.5958	0.5728	0.5498	0.5392	0.5253
313.15 K	0.6818	0.6525	0.6364	0.6134	0.5805	0.5631	0.542	0.5191	0.5122	0.4972

CCC(C)O (stereo not drawn) + CN(C)C=O
viscosity [mPa·s], [1], 101 kPa
Details	298.15 K	303.15 K	308.15 K	313.15 K
x2 = 0.085	2.48	2.11	1.78	1.52
x2 = 0.164	2.2	1.83	1.57	1.35
x2 = 0.2446	2	1.65	1.41	1.23
x2 = 0.3503	1.8	1.5	1.29	1.13
x2 = 0.4398	1.65	1.39	1.19	1.07
x2 = 0.5035	1.51	–	–	–
x2 = 0.5738	1.44	1.23	1.08	1.01
x2 = 0.6512	1.32	1.14	1.02	0.97
x2 = 0.7515	1.17	1.03	0.93	0.91
x2 = 0.841	1.03	0.93	0.85	0.86
x2 = 0.9435	0.88	0.82	0.76	0.79

Nc1ccccc1Cl + CCOCCO
[1], 303.15 K, 101 kPa
Details	viscosity [mPa·s]
x1 = 0.0966	2.088
x1 = 0.1696	2.266
x1 = 0.2725	2.507
x1 = 0.3613	2.709
x1 = 0.4791	2.967
x1 = 0.5648	3.147
x1 = 0.68	3.372
x1 = 0.7804	3.544
x1 = 0.8884	3.696

NCCCO + CC(C)O
Details	viscosity [mPa·s]
[1], 293.15 K, 101 kPa, x1 = 0.7002	19.25

C[N+](C)(C)CCO.O=C1O[C@H]([C@@H](O)CO)C([O-])=C1O + O
viscosity [mPa·s], [1], 100 kPa
Details	x1 = 0.001102	x1 = 0.001323	x1 = 0.001802	x1 = 0.002629	x1 = 0.00391	x1 = 0.005531
293.15 K	1.048	1.056	1.072	1.099	1.141	1.192
298.15 K	0.933	0.94	0.956	0.98	1.018	1.065
303.15 K	0.838	0.845	0.859	0.882	0.917	0.96
308.15 K	0.758	0.764	0.778	0.799	0.832	0.872
313.15 K	0.69	0.696	0.709	0.729	0.76	0.798

O=S1(=O)CCCC1 + CCC(C)O
viscosity [mPa·s], [1], 101 kPa
Details	x1 = 0.0998	x1 = 0.1988	x1 = 0.2898	x1 = 0.3908	x1 = 0.4973	x1 = 0.5943	x1 = 0.7033	x1 = 0.78	x1 = 0.9045
303.15 K	2.151	–	2.299	2.55	2.933	3.428	4.266	5.138	7.383
308.15 K	1.858	1.884	2.015	2.246	2.597	3.049	3.799	4.576	6.529
313.15 K	1.615	1.655	–	1.993	2.316	2.728	3.407	4.097	5.806

Cc1ccc(O)cc1 + C1COCCO1
viscosity [mPa·s], [1], 101 kPa
Details	303.15 K	308.15 K	313.15 K	318.15 K
x1 = 0.0835	1.335	1.184	1.097	0.9967
x1 = 0.1701	1.476	1.319	1.201	1.106
x1 = 0.26	1.752	1.563	1.422	1.289
x1 = 0.3534	2.165	1.887	1.71	1.542
x1 = 0.4504	2.798	2.473	2.175	1.964
x1 = 0.5515	3.65	3.108	2.733	2.409
x1 = 0.6567	4.783	4.09	3.524	–
x1 = 0.7663	6.413	5.276	4.492	3.804
x1 = 0.8807	8.261	5.704	5.704	4.834
x2 = 0.1	–	6.901	–	–
x2 = 0.2	–	5.697	–	–
x2 = 0.3	–	4.498	–	–
x2 = 0.4	–	3.461	–	–
x2 = 0.5	–	2.724	–	–
x2 = 0.6	–	2.14	–	–
x2 = 0.7	–	1.705	–	–
x2 = 0.8	–	1.401	–	–
x2 = 0.9	–	1.142	–	–

Cc1ccc(O)cc1 + CC(=O)O
viscosity [mPa·s], [1], 101 kPa
Details	x2 = 0.1682	x2 = 0.3128	x2 = 0.4383	x2 = 0.5483	x2 = 0.6454	x2 = 0.732	x2 = 0.8094	x2 = 0.8792	x2 = 0.9425
298.15 K	9.47	6.803	5.096	3.918	3.086	2.477	2.038	1.664	1.385
308.15 K	5.756	4.488	3.585	2.902	2.385	1.99	1.674	1.4	1.18
318.15 K	4.584	3.69	3.009	2.473	2.051	1.72	1.447	1.215	1.004
